Reference: patent publication US10221139B2, “Inhibitors of histone demethylases” (Gilead Sciences, Inc., priority 2012, dated 2019)

Experiments:
Assay type in all cases: biochemical
UTX (KDM6A) = biological target: T1, UTX (KDM6A) (Homo sapiens, UniProt O15550); test: Histone lysine demethylase AlphaLISA assay, UTX; settings: substrate BK27M3
T1 construct: 919-1401; host or cells: E. coli
Description: (§1) Example 2: Histone Lysine Demethylase AlphaLISA Assays for IC50 Value Determination
(§2) Assays are performed analogously to the protocol described by Perkin Elmer (Roy et al. Perkin Elmer Technical Note: AlphaLISA #12, April 2011).
(§3) Enzymes are dissolved in enzyme buffer and incubated for 10 min before 5 μL is added to 5 μL 3% DMSO solutions of compounds in enzyme buffer. Incubated for another 10 minutes, before 5 μL substrate solution is added and the reaction mixture is incubated at room temperature for the given period. 10 μL acceptor beads, suspended at given dilutions in Epigenetic Buffer (Perkin Elmer AL008) from stock, are added and the suspension is incubated 60 minutes in the dark at room temperature, before 10 μL suspension (at the given dilutions in Epigenetic Buffer) of streptavidin donor beads (Perkin Elmer 6760002) in Epigenetic Buffer is added. After incubation at room temperature in the dark the plates are read. Reaction conditions are seen in Table 2b.

PLU1 (KDM5B) = biological target: T2, PLU1 (KDM5B) (Homo sapiens, UniProt Q9UGL1); test: Histone lysine demethylase AlphaLISA assay, PLU1; settings: substrate H3K4M3B
T2 construct: 1-809; host or cells: E. coli
T2 sequence (Q9UGL1 1-809): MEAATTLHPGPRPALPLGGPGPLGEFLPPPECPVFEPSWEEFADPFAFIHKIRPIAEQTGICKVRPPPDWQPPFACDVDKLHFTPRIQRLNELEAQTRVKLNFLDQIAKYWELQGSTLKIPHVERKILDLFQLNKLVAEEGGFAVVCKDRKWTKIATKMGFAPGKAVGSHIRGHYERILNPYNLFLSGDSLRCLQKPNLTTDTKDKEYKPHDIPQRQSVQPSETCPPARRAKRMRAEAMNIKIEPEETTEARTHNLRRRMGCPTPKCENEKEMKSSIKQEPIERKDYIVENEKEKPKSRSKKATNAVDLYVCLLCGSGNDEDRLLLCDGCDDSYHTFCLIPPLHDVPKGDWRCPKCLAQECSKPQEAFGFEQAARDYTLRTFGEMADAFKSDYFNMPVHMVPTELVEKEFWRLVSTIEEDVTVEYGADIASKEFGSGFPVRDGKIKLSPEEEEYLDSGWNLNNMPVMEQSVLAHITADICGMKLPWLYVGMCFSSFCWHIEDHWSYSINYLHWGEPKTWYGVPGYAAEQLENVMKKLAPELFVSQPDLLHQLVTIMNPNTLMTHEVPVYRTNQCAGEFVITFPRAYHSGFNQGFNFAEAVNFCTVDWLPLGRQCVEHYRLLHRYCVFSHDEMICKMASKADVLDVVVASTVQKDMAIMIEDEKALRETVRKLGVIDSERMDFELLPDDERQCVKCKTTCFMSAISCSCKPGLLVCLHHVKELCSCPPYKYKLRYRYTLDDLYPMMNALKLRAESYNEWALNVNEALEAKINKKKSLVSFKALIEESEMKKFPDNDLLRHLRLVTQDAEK
Description: as §1, §2, §3

GASC1 (KDM4C, JMJD2C) = biological target: T3, GASC1 (KDM4C, JMJD2C) (Homo sapiens, UniProt Q9H3R0); test: Histone lysine demethylase AlphaLISA assay, GASC1; settings: substrate BK9M3
T3 construct: 1-349; host or cells: E. coli
T3 sequence (Q9H3R0 1-349): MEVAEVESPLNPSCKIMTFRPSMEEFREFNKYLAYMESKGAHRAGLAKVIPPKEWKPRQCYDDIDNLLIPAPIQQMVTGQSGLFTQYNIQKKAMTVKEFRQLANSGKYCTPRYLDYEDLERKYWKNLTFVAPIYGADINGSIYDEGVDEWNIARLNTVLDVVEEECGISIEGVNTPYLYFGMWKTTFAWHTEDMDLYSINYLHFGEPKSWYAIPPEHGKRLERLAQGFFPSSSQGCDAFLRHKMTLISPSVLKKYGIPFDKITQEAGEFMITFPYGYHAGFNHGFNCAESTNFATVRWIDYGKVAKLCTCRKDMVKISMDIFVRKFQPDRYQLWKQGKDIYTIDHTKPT
Description: as §1, §2, §3

T1 sequence (O15550 919-1401): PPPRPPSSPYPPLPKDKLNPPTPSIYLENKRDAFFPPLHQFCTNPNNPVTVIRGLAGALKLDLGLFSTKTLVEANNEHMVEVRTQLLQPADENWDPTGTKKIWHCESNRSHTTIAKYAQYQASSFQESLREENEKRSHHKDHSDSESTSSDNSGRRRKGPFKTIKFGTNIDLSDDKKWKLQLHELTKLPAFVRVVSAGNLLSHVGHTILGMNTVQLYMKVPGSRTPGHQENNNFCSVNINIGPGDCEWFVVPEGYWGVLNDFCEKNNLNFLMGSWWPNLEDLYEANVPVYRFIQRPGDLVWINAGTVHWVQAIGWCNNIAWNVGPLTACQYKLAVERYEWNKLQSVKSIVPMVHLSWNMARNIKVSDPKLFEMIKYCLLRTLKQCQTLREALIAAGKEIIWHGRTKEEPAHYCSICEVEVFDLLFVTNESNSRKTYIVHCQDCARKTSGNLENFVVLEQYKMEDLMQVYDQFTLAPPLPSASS

SMILES | IC50 (UTX (KDM6A)) [µM] | IC50 (PLU1 (KDM5B)) [µM] | IC50 (GASC1 (KDM4C, JMJD2C)) [µM]
CCN(CCC#N)C(=O)CNCc1cc(C(=O)O)ccn1 [#33, 2-[({[(2-cyanoethyl)(ethyl)carbamoyl]methyl}amino)methyl]pyridine-4-carboxylic acid] | ≥ 1 | < 0.1 | < 0.1
CN(CCCNCc1cc(C(=O)O)ccn1)Cc1ccccc1F [#36, 2-{[(3-{[(2-fluorophenyl)methyl](methyl)amino}propyl)amino]methyl}pyridine-4-carboxylic acid] | ≥ 1 | < 0.1 | < 0.1
O=C(O)c1ccnc(CNCC(=O)N2CCCC(Cc3nc4ccccc4[nH]3)C2)c1 (stereo not drawn) [#38, 2-[({2-[3-(1H-1,3-benzodiazol-2-ylmethyl)piperidin-1-yl]-2-oxoethyl}amino)methyl]pyridine-4-carboxylic acid] | ≥ 1 | < 0.1 | < 0.1
O=C(CNCc1cc(C(=O)O)ccn1)NC1CCN(CCc2ccccc2)C1 (stereo not drawn) [#39, 2-{[({[1-(2-phenylethyl)pyrrolidin-3-yl]carbamoyl}methyl)amino]methyl}pyridine-4-carboxylic acid] | ≥ 1 | < 0.1 | < 0.1
O=C(O)c1ccnc(CNCCCN2CCC(Cc3ccccc3)CC2)c1 [#40, 2-({[3-(4-benzylpiperidin-1-yl)propyl]amino}methyl)pyridine-4-carboxylic acid] | ≥ 1 | < 0.1 | < 0.1
O=C(O)c1ccnc(CNCCCNCCOc2ccccc2)c1 [#41, 2-[({3-[(2-phenoxyethyl)amino)propyl}amino)methyl]pyridine-4-carboxylic acid] | ≥ 1 | < 0.1 | < 0.1
O=C(O)c1ccnc(CNCC(=O)N2CCCC2Cc2ccccc2)c1 (stereo not drawn) [#43, 2-({[2-(2-benzylpyrrolidin-1-yl)-2-oxoethyl]amino}methyl)pyridine-4-carboxylic acid] | ≥ 1 | < 0.1 | < 0.1
CCOC(=O)c1ccccc1OC(=O)c1ccnc(CNCCCCN(CC)CC)c1 [#52, 2-(ethoxycarbonyl)phenyl 2-({[4-(diethylamino)butyl]amino}methyl)pyridine-4-carboxylate] | ≥ 1 | < 0.1 | 0.1 to 1
CCN(CC)CCCCNCc1cc(C(=O)OCCN(C)C)ccn1 [#53, 2-(dimethylamino)ethyl 2-({[4-(diethylamino)butyl]amino}methyl)pyridine-4-carboxylate] | ≥ 1 | < 0.1 | < 0.1
CCN(CC)CCCCNCc1cc(C(=O)OCCCN(C)C)ccn1 [#54, 3-(dimethylamino)propyl 2-({[4-(diethylamino)butyl]amino}methyl)pyridine-4-carboxylate] | ≥ 1 | < 0.1 | 0.1 to 1
CCN(CC)CCCCNCc1cc(C(=O)Oc2c(OC)cccc2OC)ccn1 [#56, 2,6-dimethoxyphenyl 2-({[4-(diethylamino)butyl]amino}methyl)pyridine-4-carboxylate] | ≥ 1 | < 0.1 | 0.1 to 1
CCN(CC)CCCCNCc1cc(C(=O)Oc2c(C)cccc2C)ccn1 [#57, 2,6-dimethylphenyl 2-({[4-(diethylamino)butyl]amino}methyl)pyridine-4-carboxylate] | ≥ 1 | < 0.1 | ≥ 1
CCN(CCN(C)C)C(=O)CNCc1cc(C(=O)Oc2ccc(OC)cc2)ccn1 [#58, 4-methoxyphenyl 2-{[({[2-(dimethylamino)ethyl](ethyl)carbamoyl}methyl)amino]methyl}pyridine-4-carboxylate] | ≥ 1 | < 0.1 | 0.1 to 1

Continued, values first:

IC50 (UTX (KDM6A)) [µM] | IC50 (PLU1 (KDM5B)) [µM] | IC50 (GASC1 (KDM4C, JMJD2C)) [µM] | SMILES
≥ 1 | 0.1 to 1 | 0.1 to 1 | CC(C)CCNCc1cc(C(=O)O)ccn1 [#22, 2-{[(3-methylbutyl)amino]methyl}pyridine-4-carboxylic acid]
≥ 1 | < 0.1 | < 0.1 | CN(CCC(N)=O)C(=O)CNCc1cc(C(=O)O)ccn1 [#23, 2-[({[(2-carbamoylethyl)(methyl)carbamoyl]methyl}amino)methyl]pyridine-4-carboxylic acid]
≥ 1 | < 0.1 | < 0.1 | O=C(O)c1ccnc(CNCC(=O)N2CCCCC2CO)c1 (stereo not drawn) [#24, 2-[({2-[2-(hydroxymethyl)piperidin-1-yl]-2-oxoethyl}amino)methyl]pyridine-4-carboxylic acid]
≥ 1 | < 0.1 | < 0.1 | CN(CCCc1nccn1C)C(=O)CNCc1cc(C(=O)O)ccn1 [#25, 2-{[({methyl[3-(1-methyl-1H-imidazol-2-yl)propyl]carbamoyl}methyl)amino]methyl}pyridine-4-carboxylic acid]
≥ 1 | < 0.1 | < 0.1 | CCN1CCCC1CNC(=O)CNCc1cc(C(=O)O)ccn1 (stereo not drawn) [#26, 2-{[({[(1-ethylpyrrolidin-2-yl)methyl]carbamoyl}methyl)amino]methyl}pyridine-4-carboxylic acid]
≥ 1 | < 0.1 | < 0.1 | CN(Cc1ccnn1C)C(=O)CNCc1cc(C(=O)O)ccn1 [#27, 2-{[({methyl[(1-methyl-1H-pyrazol-5-yl)methyl]carbamoyl}methyl)amino]methyl}pyridine-4-carboxylic acid]
≥ 1 | < 0.1 | < 0.1 | O=C(CNCc1cc(C(=O)O)ccn1)NC1CCN(CCCc2ccccc2)CC1 [#30, 2-{[({[1-(3-phenylpropyl)piperidin-4-yl]carbamoyl}methyl)amino]methyl}pyridine-4-carboxylic acid]
0.1 to 1 | < 0.1 | < 0.1 | O=C(CNCc1cc(C(=O)O)ccn1)NC1CCN(Cc2ccco2)CC1 [#31, 2-{[({[1-(furan-2-ylmethyl)piperidin-4-yl]carbamoyl}methyl)amino]methyl}pyridine-4-carboxylic acid]
≥ 1 | < 0.1 | < 0.1 | O=C(CNCc1cc(C(=O)O)ccn1)NC1CCN(Cc2ccc(-c3ccccc3)o2)CC1 [#32, 2-({[({1-[(5-phenylfuran-2-yl)methyl]piperidin-4-yl}carbamoyl)methyl]amino}methyl)pyridine-4-carboxylic acid]
0.1 to 1 | < 0.1 | < 0.1 | CN1CCN(Cc2ccc(CN(C)C(=O)CNCc3cc(C(=O)O)ccn3)cc2)CC1 [#42, 2-[({[methyl({4-[(4-methylpiperazin-1-yl)methyl]phenyl}methyl)carbamoyl]methyl}amino)methyl]pyridine-4-carboxylic acid]
< 0.1 | < 0.1 | < 0.1 | CCOC(=O)c1ccccc1OC(=O)c1ccnc(CNCC(=O)N(CC)CCN(C)C)c1 [#59, 2-(ethoxycarbonyl)phenyl 2-{[({[2-(dimethylamino)ethyl](ethyl)carbamoyl}methyl)amino]methyl}pyridine-4-carboxylate]
< 0.1 | < 0.1 | ≥ 1 | CCOC(=O)N(C)c1ccc(COC(=O)c2ccnc(CNCCCCN(CC)CC)c2)cc1 [#60, {4-[(ethoxycarbonyl)(methyl)amino]phenyl}methyl 2-({[4-(diethylamino)butyl]amino}methyl)pyridine-4-carboxylate]
